PubChem BioAssay AID1963451 (Molecular Pharmacology Branch, DTP, NCI, 2024)

Tested on: 521955-158-R6-J3-PDC complex spheroid growth, % test/control
Experiment: Anticancer human tumor 521955-158-R6-J3-PDC patient-derived pancreatic carcinoma cell line growth inhibition [Asc]
Settings: for IC50: curve of first compound; for viability, T/C: stronger effect = lower value; active means viability on the fitted dose curve at most 10% of control; inactive means the rest
Outline: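 Spheroid model: tumor line + HUVEC + hMSC. Single agents and combinations; top conc. at/near clinical Cmax (10 microM if undetermined), half-log dilutions. DMSO stocks at 800-fold test concentration.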

[1] = second compound 0.00316 µM, first compound 0.00316 µM
[2] = second compound 0.00316 µM, first compound 0.01 µM
[3] = second compound 0.00316 µM, first compound 0.0316 µM
[4] = second compound 0.00316 µM, first compound 0.1 µM
[5] = second compound 0.00316 µM, first compound 0.316 µM
[6] = second compound 0.00316 µM, first compound 1 µM
[7] = second compound 0.01 µM, first compound 0.00316 µM
[8] = second compound 0.01 µM, first compound 0.01 µM
[9] = second compound 0.01 µM, first compound 0.0316 µM
[10] = second compound 0.01 µM, first compound 0.1 µM
[11] = second compound 0.01 µM, first compound 0.316 µM
[12] = second compound 0.01 µM, first compound 1 µM
[13] = second compound 0.0316 µM, first compound 0.00316 µM
[14] = second compound 0.0316 µM, first compound 0.01 µM
[15] = second compound 0.0316 µM, first compound 0.0316 µM
[16] = second compound 0.0316 µM, first compound 0.1 µM
[17] = second compound 0.0316 µM, first compound 0.316 µM
[18] = second compound 0.0316 µM, first compound 1 µM
[19] = second compound 0.1 µM, first compound 0.00316 µM
[20] = second compound 0.1 µM, first compound 0.01 µM
[21] = second compound 0.1 µM, first compound 0.0316 µM
[22] = second compound 0.1 µM, first compound 0.1 µM
[23] = second compound 0.1 µM, first compound 0.316 µM
[24] = second compound 0.1 µM, first compound 1 µM
[25] = second compound 0.316 µM, first compound 0.00316 µM
[26] = second compound 0.316 µM, first compound 0.01 µM
[27] = second compound 0.316 µM, first compound 0.0316 µM
[28] = second compound 0.316 µM, first compound 0.1 µM
[29] = second compound 0.316 µM, first compound 0.316 µM
[30] = second compound 0.316 µM, first compound 1 µM
[31] = second compound 1 µM, first compound 0.00316 µM
[32] = second compound 1 µM, first compound 0.01 µM
[33] = second compound 1 µM, first compound 0.0316 µM
[34] = second compound 1 µM, first compound 0.1 µM
[35] = second compound 1 µM, first compound 0.316 µM
[36] = second compound 1 µM, first compound 1 µM
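Further: spheroids exposed to compounds for 7 days.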
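Wherever viability, T/C is given: 100% = DMSO vehicle control wells.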

CCN1CCN(Cc2ccc(Nc3ncc(F)c(-c4cc(F)c5nc(C)n(C(C)C)c5c4)n3)nc2)CC1 + CNC(C)C(=O)NC1CN(S(=O)(=O)c2cccc(S(=O)(=O)N3CCC4CCC(C(=O)NC(c5ccccc5)c5ccccc5)N4C(=O)C(NC(=O)C(C)NC)C3)c2)CCC2CCC(C(=O)NC(c3ccccc3)c3ccccc3)N2C1=O
> 1000 nM: IC50 (second compound 0.00316 µM) | IC50 (second compound 0.01 µM) | IC50 (second compound 0.0316 µM) | IC50 (second compound 0.1 µM) | IC50 (second compound 0.316 µM) | IC50 (second compound 1 µM)
inactive: viability, T/C [1] 174% | viability, T/C [2] 141% | viability, T/C [3] 140% | viability, T/C [4] 153% | viability, T/C [5] 136% | viability, T/C [6] 120% | viability, T/C [7] 94.2% | viability, T/C [8] 76.4% | viability, T/C [9] 86.1% | viability, T/C [10] 75.9% | viability, T/C [11] 74.9% | viability, T/C [12] 86.4% | viability, T/C [13] 103% | viability, T/C [14] 82.1% | viability, T/C [15] 73.6% | viability, T/C [16] 83.4% | viability, T/C [17] 83.6% | viability, T/C [18] 92.1% | viability, T/C [19] 107% | viability, T/C [20] 114% | viability, T/C [21] 102% | viability, T/C [22] 75.9% | viability, T/C [23] 88.2% | viability, T/C [24] 100% | viability, T/C [25] 87.4% | viability, T/C [26] 78.8% | viability, T/C [27] 71% | viability, T/C [28] 66.5% | viability, T/C [29] 67.1% | viability, T/C [30] 71% | viability, T/C [31] 86.3% | viability, T/C [32] 81.3% | viability, T/C [33] 71.8% | viability, T/C [34] 72.8% | viability, T/C [35] 77.3% | viability, T/C [36] 83.9%

NC(=O)C(=Cn1cnc(-c2cc(C(F)(F)F)cc(C(F)(F)F)c2)n1)c1cncnc1 + CNC(C)C(=O)NC1CN(S(=O)(=O)c2cccc(S(=O)(=O)N3CCC4CCC(C(=O)NC(c5ccccc5)c5ccccc5)N4C(=O)C(NC(=O)C(C)NC)C3)c2)CCC2CCC(C(=O)NC(c3ccccc3)c3ccccc3)N2C1=O
> 300 nM: IC50 (second compound 0.00316 µM) | IC50 (second compound 0.01 µM) | IC50 (second compound 0.0316 µM) | IC50 (second compound 0.1 µM) | IC50 (second compound 0.316 µM) | IC50 (second compound 1 µM)
inactive: viability, T/C (second compound 0.00316 µM, first compound 0.000949 µM) 114% | viability, T/C (second compound 0.00316 µM, first compound 0.003 µM) 122% | viability, T/C (second compound 0.00316 µM, first compound 0.00949 µM) 119% | viability, T/C (second compound 0.00316 µM, first compound 0.03 µM) 104% | viability, T/C (second compound 0.00316 µM, first compound 0.0949 µM) 93.9% | viability, T/C (second compound 0.00316 µM, first compound 0.3 µM) 66.5% | viability, T/C (second compound 0.01 µM, first compound 0.000949 µM) 71% | viability, T/C (second compound 0.01 µM, first compound 0.003 µM) 69.2% | viability, T/C (second compound 0.01 µM, first compound 0.00949 µM) 59.2% | viability, T/C (second compound 0.01 µM, first compound 0.03 µM) 81.7% | viability, T/C (second compound 0.01 µM, first compound 0.0949 µM) 83.7% | viability, T/C (second compound 0.01 µM, first compound 0.3 µM) 75.5% | viability, T/C (second compound 0.0316 µM, first compound 0.000949 µM) 79.5% | viability, T/C (second compound 0.0316 µM, first compound 0.003 µM) 59.5% | viability, T/C (second compound 0.0316 µM, first compound 0.00949 µM) 63.9% | viability, T/C (second compound 0.0316 µM, first compound 0.03 µM) 62.9% | viability, T/C (second compound 0.0316 µM, first compound 0.0949 µM) 79.6% | viability, T/C (second compound 0.0316 µM, first compound 0.3 µM) 66.6% | viability, T/C (second compound 0.1 µM, first compound 0.000949 µM) 65.7% | viability, T/C (second compound 0.1 µM, first compound 0.003 µM) 69% | viability, T/C (second compound 0.1 µM, first compound 0.00949 µM) 65.2% | viability, T/C (second compound 0.1 µM, first compound 0.03 µM) 58.7% | viability, T/C (second compound 0.1 µM, first compound 0.0949 µM) 75.2% | viability, T/C (second compound 0.1 µM, first compound 0.3 µM) 75.1% | viability, T/C (second compound 0.316 µM, first compound 0.000949 µM) 61% | viability, T/C (second compound 0.316 µM, first compound 0.003 µM) 69.9% | viability, T/C (second compound 0.316 µM, first compound 0.00949 µM) 70.3% | viability, T/C (second compound 0.316 µM, first compound 0.03 µM) 71% | viability, T/C (second compound 0.316 µM, first compound 0.0949 µM) 68% | viability, T/C (second compound 0.316 µM, first compound 0.3 µM) 70.2% | viability, T/C (second compound 1 µM, first compound 0.000949 µM) 54.4% | viability, T/C (second compound 1 µM, first compound 0.003 µM) 66.9% | viability, T/C (second compound 1 µM, first compound 0.00949 µM) 70% | viability, T/C (second compound 1 µM, first compound 0.03 µM) 60.6% | viability, T/C (second compound 1 µM, first compound 0.0949 µM) 86.1% | viability, T/C (second compound 1 µM, first compound 0.3 µM) 62%

O=C(c1ccc(F)c(F)c1Nc1ccc(I)cc1F)N1CC(O)([C@@H]2CCCCN2)C1 + CNC(C)C(=O)NC1CN(S(=O)(=O)c2cccc(S(=O)(=O)N3CCC4CCC(C(=O)NC(c5ccccc5)c5ccccc5)N4C(=O)C(NC(=O)C(C)NC)C3)c2)CCC2CCC(C(=O)NC(c3ccccc3)c3ccccc3)N2C1=O
291 nM: IC50 (second compound 0.0316 µM)
503 nM: IC50 (second compound 0.1 µM)
569 nM: IC50 (second compound 0.00316 µM)
inactive: viability, T/C [1] 150% | viability, T/C [2] 127% | viability, T/C [3] 120% | viability, T/C [4] 105% | viability, T/C [5] 60% | viability, T/C [6] 36% | viability, T/C [7] 87.4% | viability, T/C [8] 84.9% | viability, T/C [9] 94.8% | viability, T/C [10] 74.9% | viability, T/C [11] 45.5% | viability, T/C [12] 30.7% | viability, T/C [13] 88.7% | viability, T/C [14] 88.6% | viability, T/C [15] 90.1% | viability, T/C [16] 72% | viability, T/C [17] 49.2% | viability, T/C [18] 31% | viability, T/C [19] 117% | viability, T/C [20] 94.3% | viability, T/C [21] 102% | viability, T/C [22] 83.8% | viability, T/C [23] 65.7% | viability, T/C [24] 28.7% | viability, T/C [25] 72.6% | viability, T/C [26] 76.1% | viability, T/C [27] 72.5% | viability, T/C [28] 61% | viability, T/C [29] 43.6% | viability, T/C [30] 29.9% | viability, T/C [31] 78.9% | viability, T/C [32] 70.9% | viability, T/C [33] 95.4% | viability, T/C [34] 56.5% | viability, T/C [35] 39.5% | viability, T/C [36] 27.4%
139 nM: IC50 (second compound 1 µM)
207 nM: IC50 (second compound 0.316 µM)
261 nM: IC50 (second compound 0.01 µM)
